Source: patent US20250346579A1, “PYRIDAZINONE COMPOUND AND PREPARATION METHOD THEREFOR, PHARMACEUTICAL COMPOSITION THEREOF, AND APPLICATION THEREOF” (CHINA PHARMACEUTICAL UNIVERSITY, priority 2021, published 2025)
Like-named read-outs stand apart in the source and are kept apart here.

Experiments:
[1] = Pharmacokinetic study in ICR mice; assay type: in vivo; details: for AUC / Cmax / clearance / half-life: male, mouse, supernatant of centrifuged blood
Procedure: (§1) Experimental process: 12 male ICR mice were selected, 6 of the […] were orally administrated (3 of them were administered with RBN-2397, and the remaining 3 were administered with I-A-1, at a dose of 10 mg/kg), 6 of the rats were administered intravenously (3 of them were administered with RBN-2397, and the remaining 3 were administered with I-A-1, at a dose of 1 mg/kg), blood samples were collected at 0 min, 2 min, 5 min, 10 min, 20 min, 30 min, 60 min, 2 h, 4 h, 6 h, and 8 h, respectively, and then centrifuged (at 3000 rpm for 5 min), a supernatant was collected and analyzed by LC-MS-MS, and results were analyzed by using WinNonlin Software.

CT26 cells = test: In vivo pharmacodynamic study, CT26 subcutaneous tumors in BALB/c mice
From the text: BALB/c mice were subcutaneously inoculated with CT26 cells in the right abdominal skin to develop tumors. Four days after tumor inoculation, 24 mice having a tumor size ranging from 55-75 mm^3 (with an average tumor size of 63 mm^3) were selected and randomly divided into 4 groups based on their tumor volumes, with 6 mice in each group. Drug administration was started on the day following random grouping (the day of random grouping was identified as Day 0), a carrier (0.5% of methyl cellulose+0.2% of Tween 80), Compound RBN-2397 (500 mg/kg, once a day, intragastric administration for 14 consecutive days), Compound I-A-1 (100 mg/kg, once a day, intragastric administration for 14 consecutive days), Compound I-A-1 (50 mg/kg, twice a day, intragastric administration for 14 consecutive days) were administered respectively, and the tumor size was measured three times per week during an administration period.

PARP7 = molecular target: T1, PARP7 (Homo sapiens, UniProt Q7Z3E1); test: Inhibitory activity of compounds on PARP7 enzyme (PARP7 Chemiluminescent Assay Kit); assay type: biochemical
T1 construct: purchased BPS Bioscience
T1 sequence (Q7Z3E1 1-657): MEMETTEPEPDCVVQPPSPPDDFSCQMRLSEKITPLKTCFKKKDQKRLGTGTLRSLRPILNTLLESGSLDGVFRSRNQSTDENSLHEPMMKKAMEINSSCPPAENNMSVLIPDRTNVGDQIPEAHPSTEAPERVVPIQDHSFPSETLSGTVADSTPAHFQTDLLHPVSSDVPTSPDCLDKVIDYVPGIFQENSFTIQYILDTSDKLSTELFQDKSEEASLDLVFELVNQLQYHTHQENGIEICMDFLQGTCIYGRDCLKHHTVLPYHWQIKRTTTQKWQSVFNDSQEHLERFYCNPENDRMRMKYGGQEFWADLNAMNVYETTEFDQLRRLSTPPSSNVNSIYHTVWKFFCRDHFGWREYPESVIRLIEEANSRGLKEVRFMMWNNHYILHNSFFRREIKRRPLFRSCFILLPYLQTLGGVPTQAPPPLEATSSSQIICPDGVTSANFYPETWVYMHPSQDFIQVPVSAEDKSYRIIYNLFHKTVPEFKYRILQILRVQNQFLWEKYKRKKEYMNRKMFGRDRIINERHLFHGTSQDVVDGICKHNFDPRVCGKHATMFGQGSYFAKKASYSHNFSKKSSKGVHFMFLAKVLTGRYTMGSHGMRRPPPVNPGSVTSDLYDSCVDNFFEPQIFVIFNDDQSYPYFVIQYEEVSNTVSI
Procedure: Experimental materials: PARP7 Chemiluminescent Assay Kit, BPS Bioscience; DMSO, China National Pharmaceutical Group, Nivo, PerkinElmer.
(1) Preparation of Solutions and Buffers:
Preparation of 10×PBS: 720 mg of KH2PO4, 45 g of NaCl and 5.311 g of Na2HPO4·12H2O were weighed respectively and dissolved in 500 mL of deionized water, a system pH value was adjusted to 7.4, sterilization was performed at 121° C. for 30 min, and the system after cooling was placed at 4° C. for later use.
Preparation of 1×PBS: 10×PBS was diluted 10 times with deionized water, that is, 9 parts of deionized water was added to 1 part of 10×PBS for dilution.
Preparation of wash buffer: 1×PBS contained 0.05% Tween-20.
Preparation of 1×PARP buffer (prepared freshly before use): 10×PARP buffer was diluted 10 times with deionized water and placed on ice for later use.
(2) Preparation of Compound Working Solution Concentration:
According to test requirements, a compound to be tested is diluted with 100% DMSO to a desired concentration, and then diluted 10 times with 1×PARP buffer to prepare a 10× compound working solution.
a. 5× histone mixture was thawed on ice one day prior to the experiment;
b. preparation of 1× histone mixture: 1× histone mixture was prepared through the 5× histone mixture by using 1×PBS; and 25 μL of 1× histone mixture was taken from each well and transferred into a test well plate and incubated overnight at 4° C.;
c. 100 μL of Blocking buffer was taken from each well and added to the test well plate and incubated for 90 min at 25° C.;
d. after the incubation was completed, the liquid in the test well plate was spin-dried, and the test well plate was washed repeatedly for 3 times;
e. 2.5 μL of the compound working solution was taken from each well and added to the test well plate according to an experimental layout diagram; and 1×PARP buffer with a corresponding volume of 10% DMSO was added to positive control wells (Positive Control), and 1×PARP buffer of a corresponding volume was added to blank control wells (Blank);
f. after the enzyme was completely dissolved, an enzyme stock solution was diluted with 1×PARP buffer to 6 ng/μL;
g. 10 μL of enzyme solution was taken from each well and added to the test well plate, the blank control wells were added with the corresponding volume of 1×PARP buffer, and in which case, the enzyme amount was 60 ng per well. Note: this step needs to be performed on ice;
h. 12.5 μL of master mixture was added to each well of the test well plate (12.5 μL master mixture included 1.25 μL of 10×PARP buffer, 1.25 μL of Opti-PARP 10× Assay mixture and 10 μL of water); the test well plate was sealed and incubated at 25° C. for 60 min;
i. after the incubation was completed, the liquid in the test well plate was spin-dried, and the test well plate was washed repeatedly for 3 times;
j. Streptavidin-HRP in a kit was diluted 50 times with a Blocking buffer, 25 μL was taken from each well and added to the test well plate, and incubated at 25° C. for 30 min;
k. after the incubation was completed, the liquid in the test well plate was spin-dried, and the test well plate was washed repeatedly for 3 times;
l. ELISA ECL Substrate A and ELISA ECL Substrate B in the kit was mixed to obtain a mixed solution according to a ratio of 1:1, 50 μL of the mixed solution was added to each well of the test well plate, Nivo was used to perform Luminescence detection immediately, and a luminous value (RLU) was read; and
m. calculation of an enzyme rate: Enzyme Activity=(RLU(Sample)−RLU(Blank))/(RLU(Pos.Ctrl)−RLU(Blank))×100%; and enzyme inhibition rate=1−% Enzyme Activity, and specific results were shown in Table 1 below.

[2] = Pharmacokinetic study in SD rats; assay type: in vivo; details: for AUC / Cmax / clearance / half-life: male, rat, supernatant of centrifuged blood
Procedure: as §1, with “SD rats” for “ICR mice”

[3] = in words, background; cited from earlier work
NCI-H1373 cells = details: NCI-H1373 xenograft; dose of >30 mg/kg orally once a day; cited from earlier work

With C[C@@H](CN1CC(C(=O)N2CCN(c3ncc(C(F)(F)F)cn3)CC2)C1)Nc1cn[nH]c(=O)c1C(F)(F)F [I-A-1, (S)-4-(trifluoromethyl)-5-((1-(3-(4-(5-(trifluoromethyl)pyrimidin-2-yl)piperazine-1-carbonyl)azetidin-1-yl)propan-2-yl)amino)pyridazin-3(2H)-one] the F ([1]; PO 10 mg/kg, 10 mg/kg) was 95.80%, the pharmacokinetic properties ([1]; in words) was “good pharmacokinetic properties” and the AUC ([1]; IV 1 mg/kg) was 591 ng·h/mL. It also gave a Cmax ([1]; IV 1 mg/kg) of 419 ng/mL, a clearance ([1]; IV 1 mg/kg) of 29 mL/min/kg and a half-life ([1]; IV 1 mg/kg) of 1.44 h. The AUC ([1]; PO 10 mg/kg) was 5660 ng·h/mL, the Cmax ([1]; PO 10 mg/kg) was 2300 ng/mL and the half-life ([1]; PO 10 mg/kg) was 1.74 h. For the same molecule, the anti-tumor activity (CT26 cells; 100 mg/kg once a day or 50 mg/kg twice a day, intragastric, 14 days, FIG. 2) was “significant anti-tumor activity”, the “anti-tumor effect compared with the positive drug RBN-2397” value (CT26 cells; I-A-1 100 mg/kg/day vs RBN-2397 500 mg/kg once a day) was “better anti-tumor effect at a lower dose” and the IC50 (PARP7; chemiluminescence, symbols defined as IC50 classes, read-out: 100 nM Inhibition Rate) was < 100 nM. The IC50 (PARP7; summary of Table 1, read-out: enzyme inhibition IC50 values) was < 100 nM, the CL ([2]; PO 10 mg/kg) was 62.9522 mL/min/kg and the F ([2]; PO 10 mg/kg) was 46.8%. For the same molecule, the pharmacokinetic properties ([2]; in words) was “good pharmacokinetic properties”, the AUC ([2]; IV 1 mg/kg) was 548 ng·h/mL and the Cmax ([2]; IV 1 mg/kg) was 333 ng/mL. It also gave a clearance ([2]; IV 1 mg/kg) of 30.4 mL/min/kg, a half-life ([2]; IV 1 mg/kg) of 1.72 h and an AUC ([2]; PO 10 mg/kg) of 2560 ng·h/mL. It also gave a Cmax ([2]; PO 10 mg/kg) of 564 ng/mL and a half-life ([2]; PO 10 mg/kg) of 2.57 h.

Work on C[C@@H](COCCC(=O)N1CCN(c2ncc(C(F)(F)F)cn2)CC1)Nc1cn[nH]c(=O)c1C(F)(F)F [RBN-2397, reference compound] yielded an F ([1]; PO 10 mg/kg) of 25.67%, an AUC ([1]; IV 1 mg/kg) of 256 ng·h/mL and a Cmax ([1]; IV 1 mg/kg) of 757 ng/mL. The clearance ([1]; IV 1 mg/kg) was 67 mL/min/kg, the half-life ([1]; IV 1 mg/kg) was 0.15 h and the AUC ([1]; PO 10 mg/kg) was 656 ng·h/mL. For the same molecule, the Cmax ([1]; PO 10 mg/kg) was 1310 ng/mL, the half-life ([1]; PO 10 mg/kg) was 0.9 h and the “drug exposure and oral bioavailability in vivo” value [3] was “low”. The “in vivo clearance rate” value [3] was “high”, the anti-tumor effects (NCI-H1373 cells) was “significant anti-tumor effects” and the CL ([2]; PO 10 mg/kg) was 381.342 mL/min/kg. The F ([2]; PO 10 mg/kg) was 12.4%, the AUC ([2]; IV 1 mg/kg) was 333 ng·h/mL and the Cmax ([2]; IV 1 mg/kg) was 836 ng/mL. For the same molecule, the clearance ([2]; IV 1 mg/kg) was 50.6 mL/min/kg, the half-life ([2]; IV 1 mg/kg) was 0.28 h and the AUC ([2]; PO 10 mg/kg) was 415 ng·h/mL. The Cmax ([2]; PO 10 mg/kg) was 295 ng/mL and the half-life ([2]; PO 10 mg/kg) was 0.75 h.
